The values below are quoted from earlier work in US6582919B2, “Method of determining epidermal growth factor receptor and HER2-neu gene expression and correlation of levels thereof with survival rates” (Response Genetics, Inc., priority 2001, dated 2003).

SMILES strings stand for the structures.

In series [1] the test system is EGFR expressing human mammary carcinoma cells. Conditions: cells injected into athymic nude mice (Toi et al. 1990).
For series [2], the system named is tumors not expressing EGFR. Conditions: Toi et al. 1990.

Take `O=CN/C=C/c1cc(O)ccc1O` [erbstatin]: the “growth of EGFR expressing human mammary carcinoma cells” value in series [1] is recorded as “reduced the growth”. In series [2], the “growth of tumors not expressing EGFR” value is given as “no effect”.
